According to US20250304623A1, “PEPTIDES FOR INTRACELLULAR DELIVERY” (UNIVERSIDADE DE SANTIAGO DE COMPOSTELA, priority 2022, published 2025):
*: point of attachment. NHNH2 = NN*

What was measured:
Assay type in all cases: cell-based
[1] = system: ARPE19 cells expressing EGFP; experiment: Cas9-RNP delivery against EGFP (gene editing, plate reader), ARPE19
Description: (§1) To generate an EGFP expressing HeLa cell line, HeLa cells were transfected with EGFP pDNA (pEGFP-C1, Clontech) and stable transfectants were selected with 400 μg/mL of G-418 (Millipore). Green clones were selected by epifluorescence microscopy and tested for EGFP expression stability through several passages. […] All other EGFP-expressing cell lines were obtained in a similar way from parent non-EGFP-expressing cell lines.
Cells expressing EGFP were seeded in a 96 well plate the day before the experiment at a concentration of 50,000 cell/mL (100 μL/w) in DMEM+10% FBS+1% Gln-Abt. For robotic library screening, the delivery of Cas9-RNP against EGFP (RNP designed to knock-out the gene encoding for the enhanced green fluorescent protein (EGFP)) was performed. For RNP assembly, 9.2 μL of crRNA and 9.2 μL of tracrRNA were mixed in 211.6 μL of Nuclease-Free Duplex Buffer (IDT), incubated for 5 min at 95° C. and slowly cooled at rt (see I. Lostalé-Seijo, et al. Peptide/Cas9 nanostructures for ribonucleoprotein cell membrane transport and gene edition, Chem. Sci., 2017). Cas9 protein was dissolved in DMEM at a final concentration of 4 μM and equal volumes of the RNA complex and Cas9 were mixed and incubated for 5 min at rt. 75 μL of the corresponding amphiphile concentrations were added to 5 μL of RNP at 2 μM. The mixture was shaken for 30 min at room temperature before the addition to the cells. The cell medium was aspirated, and cells were washed twice with PBS. Cells were covered with 30 μL of DMEM and 20 μL of the RNP/amphiphile complexes were added to the cells (final peptide concentrations=2.5, 5 and 10 μM; final Cas9-RNP concentration=50 nM) and incubated for 4 h. After the incubation, the medium was replaced by 100 μL of fresh DMEM supplemented with 10% FBS. The total EGFP fluorescence was quantified after 72 h in a plate reader (FIG. 2, Table 1 (right) and Table 6). All experiments were done in triplicate. […]
(§2) Tables 26-31 show the mean (triplicates) percentage of gene editing, accounted by GFP fluorescence intensity decrease (% of reduction), measured after the transfection of Cas9-RNP by different amphiphiles at different concentrations in a variety of cell lines. Background values, accounted by untreated control cells, were subtracted for processing.

[2] = system: A549 cells expressing EGFP; experiment: EGFP-targeting siRNA delivery (GFP silencing vs siMOCK), A549; settings: for siRNA % fluorescence reduction vs siMOCK: A549, amphiphile 5 μM, hydrophobic tail; for percentage of GFP-silencing relative to siMOCK: A549 cells
Description: as §1
Cells expressing EGFP were seeded in a 96 well plate the day before the experiment at a concentration of 50,000 cell/mL (100 μL/w) in DMEM+10% FBS+1% Gln-Abt. For robotic library screening, the delivery of an EGFP-targeting siRNA (EGFP: enhanced green fluorescent protein, Ambion® Silencer® GFP Positive Control siRNA (siGFP) (AM4626)) in six different cell lines expressing EGFP was performed. […] The mixture was shaken for 30 min at room temperature (rt) before the addition to the cells. The cell medium was aspirated, and cells were washed twice with PBS. Finally, 50 μL of the solution of siRNA/amphiphile complexes were added to the cells and incubated for 4 h. After transfection, the medium was replaced by 100 μL of fresh DMEM supplemented with 10% FBS. The fluorescence knockdown was quantified after 72 h in a plate reader, by comparison with cells transfected with a non-targeting siRNA control (siMOCK, Silencer™ Negative Control No. 1 siRNA (siMOCK) (AM4611)). EGFP knockdown was compared with Lipofectamine® RNAiMAX silencing efficiency (30-60% depending on cell line, defined with a numeric value in the below tables). All experiments were done in triplicate.
(§3) Tables 1-7: RLuc (pDNA) or EGFP (mRNA) expression levels were normalized to Lipofectamine reagents (value=1) and expressed as fold-times signal increase. In the case of siRNA, the siRNA treated cells fluorescence was compared with siMOCK control fluorescence, while Cas9-RNP mediated knockout was measured against the fluorescence of untreated cells. In both siRNA and Cas9-RNP, values are expressed as % fluorescence reduction. Amphiphile concentration was 5 μM in all cases. All experiments were performed in triplicate.
as §2, with “20-25” for “26-31”, “GFP-silencing,” for “gene editing,”, “by” for “by GFP”, “relative to a non-targeting siRNA (siMOCK) control,” for “(% of reduction),”, “siRNA” for “Cas9-RNP”

[3] = system: HCT116 cells expressing EGFP; experiment: EGFP-targeting siRNA delivery (GFP silencing vs siMOCK), HCT116
Description: as §1
Cells expressing EGFP were seeded in a 96 well plate the day before the experiment at a concentration of 50,000 cell/mL (100 μL/w) in DMEM+10% FBS+1% Gln-Abt. For robotic library screening, the delivery of an EGFP-targeting siRNA (EGFP: enhanced green fluorescent protein, Ambion® Silencer® GFP Positive Control siRNA (siGFP) (AM4626)) in six different cell lines expressing EGFP was performed. Amphiphilic molecules stock solutions in DMSO were diluted with DMEM and freshly mixed with siRNA stock solutions in DMEM prior to transfection experiments, to afford several complexes at different amphiphile concentration (2-10 μM) while maintaining a constant final siRNA concentration of 30 nM. The mixture was shaken for 30 min at room temperature (rt) before the addition to the cells. The cell medium was aspirated, and cells were washed twice with PBS. Finally, 50 μL of the solution of siRNA/amphiphile complexes were added to the cells and incubated for 4 h. After transfection, the medium was replaced by 100 μL of fresh DMEM supplemented with 10% FBS. The fluorescence knockdown was quantified after 72 h in a plate reader, by comparison with cells transfected with a non-targeting siRNA control (siMOCK, Silencer™ Negative Control No. 1 siRNA (siMOCK) (AM4611)). EGFP knockdown was compared with Lipofectamine® RNAiMAX silencing efficiency (30-60% depending on cell line, defined with a numeric value in the below tables). All experiments were done in triplicate.
as §3
as §2, with “20-25” for “26-31”, “GFP-silencing,” for “gene editing,”, “by” for “by GFP”, “relative to a non-targeting siRNA (siMOCK) control,” for “(% of reduction),”, “siRNA” for “Cas9-RNP”

Row | Substance | percentage of gene editing, GFP fluorescence intensity decrease (% of reduction) ([1]; Myristoleyl, 10 μM) [%] | percentage of gene editing, GFP fluorescence intensity decrease (% of reduction) ([1]; Petroselinyl, 15 μM) [%] | percentage of GFP-silencing relative to siMOCK ([2]; Dodecanal, 5 μM) [%] | percentage of GFP-silencing relative to siMOCK ([2]; Dodecanal, 10 μM) [%] | percentage of GFP-silencing relative to siMOCK ([2]; Dodecanal, 15 μM) [%] | percentage of GFP-silencing relative to siMOCK ([2]; Myristoleyl, 5 μM) [%] | percentage of GFP-silencing relative to siMOCK ([2]; Myristoleyl, 10 μM) [%] | percentage of GFP-silencing relative to siMOCK ([2]; Myristoleyl, 15 μM) [%] | percentage of GFP-silencing relative to siMOCK ([2]; Oleyl, 10 μM) [%] | percentage of GFP-silencing relative to siMOCK ([2]; Oleyl, 15 μM) [%] | percentage of GFP-silencing relative to siMOCK ([2]; Palmitoleyl, 10 μM) [%] | percentage of GFP-silencing relative to siMOCK ([2]; Palmitoleyl, 15 μM) [%] | percentage of GFP-silencing relative to siMOCK ([2]; Petroselinyl, 10 μM) [%] | percentage of GFP-silencing relative to siMOCK ([2]; Petroselinyl, 15 μM) [%] | percentage of GFP-silencing relative to siMOCK ([3]; Dodecanal, 5 μM) [%] | percentage of GFP-silencing relative to siMOCK ([3]; Dodecanal, 15 μM) [%] | percentage of GFP-silencing relative to siMOCK ([3]; Myristoleyl, 15 μM) [%] | percentage of GFP-silencing relative to siMOCK ([3]; Oleyl, 10 μM) [%] | percentage of GFP-silencing relative to siMOCK ([3]; Oleyl, 15 μM) [%] | percentage of GFP-silencing relative to siMOCK ([3]; Palmitoleyl, 10 μM) [%] | further results
1 | Ac-RRLK*RLK*RRLK*RL-NH2 [Peptide 13.3] | 32 | −11 | 59 | 54 | 46 | 57 | 25 | 28 | 14 | 4 | 37 | 29 | 53 | 59 | 45 | 31 | −5 | 46 | 14 | 31 | percentage of gene editing, GFP fluorescence intensity decrease (% of reduction) ([1]; Dodecanal, 10 μM): 13%; percentage of gene editing, GFP fluorescence intensity decrease (% of reduction) ([1]; Dodecanal, 15 μM): 18%; percentage of gene editing, GFP fluorescence intensity decrease (% of reduction) ([1]; Myristoleyl, 15 μM): 38%; percentage of gene editing, GFP fluorescence intensity decrease (% of reduction) ([1]; Oleyl, 5 μM): 20%; siRNA % fluorescence reduction vs siMOCK ([2]; dodecanal hydrophobic tail): 58%; siRNA % fluorescence reduction vs siMOCK ([2]; myristoleyl hydrophobic tail): 57%; siRNA % fluorescence reduction vs siMOCK ([2]; palmitoleyl hydrophobic tail): 60%; percentage of GFP-silencing relative to siMOCK ([2]; Palmitoleyl, 5 μM): 60%; percentage of GFP-silencing relative to siMOCK ([2]; Petroselinyl, 5 μM): 31%; percentage of GFP-silencing relative to siMOCK ([3]; Oleyl, 5 μM): 55%; percentage of GFP-silencing relative to siMOCK ([3]; Palmitoleyl, 15 μM): 28%; percentage of GFP-silencing relative to siMOCK ([3]; Petroselinyl, 5 μM): 1%
2 | Ac-RRHK*RLK*RRLK*RL-NH2 (Ac-RRHK(NHNH2)RLK(NHNH2)RRLK(NHNH2)RL-NH2; not fully specified; printed as Ac-RRHK*RLK*RRLK*RL-NH2; also: K*4,K*7,K*11: native or modified lysine (ε-amide to a linker)) [13(Leu-His)] | – | 22 | – | 10 | 55 | – | 10 | 14 | 20 | 17 | 54 | 50 | 38 | 76 | 43 | 40 | – | – | – | 49 | percentage of gene editing, GFP fluorescence intensity decrease (% of reduction) ([1]; Oleyl, 10 μM): −6%; percentage of gene editing, GFP fluorescence intensity decrease (% of reduction) ([1]; Palmitoleyl, 10 μM): −13%; percentage of gene editing, GFP fluorescence intensity decrease (% of reduction) ([1]; Palmitoleyl, 15 μM): 6%; siRNA % fluorescence reduction vs siMOCK [2]: 76%; percentage of GFP-silencing relative to siMOCK ([2]; Oleyl, 5 μM): 29%; percentage of GFP-silencing relative to siMOCK ([3]; Dodecanal, 10 μM): 43%; percentage of GFP-silencing relative to siMOCK ([3]; Palmitoleyl, 5 μM): 43%; percentage of GFP-silencing relative to siMOCK ([3]; Petroselinyl, 5 μM): 47%; percentage of GFP-silencing relative to siMOCK ([3]; Petroselinyl, 10 μM): 29%
3 | Ac-RRLK*RLLRRLK*RLK*RRL-NH2 (Ac-RRLK(NHNH2)RLLRRLK(NHNH2)RLK(NHNH2)RRL-NH2; not fully specified; printed as Ac-RRLK*RLLRRLK*RLK*RRL-NH2; also: K*4,K*11,K*14: native or modified lysine (ε-amide to a linker)) [Peptide 17.3] | 44 | 27 | 25 | 4 | – | 24 | 8 | 6 | – | – | – | – | – | – | – | – | 78 | 44 | 64 | – | percentage of gene editing, GFP fluorescence intensity decrease (% of reduction) ([1]; Oleyl, 10 μM): 45%; percentage of gene editing, GFP fluorescence intensity decrease (% of reduction) ([1]; Oleyl, 15 μM): −9%; percentage of gene editing, GFP fluorescence intensity decrease (% of reduction) ([1]; Palmitoleyl, 5 μM): 12%; percentage of gene editing, GFP fluorescence intensity decrease (% of reduction) ([1]; Palmitoleyl, 10 μM): 60%; percentage of gene editing, GFP fluorescence intensity decrease (% of reduction) ([1]; Palmitoleyl, 15 μM): 31%; percentage of gene editing, GFP fluorescence intensity decrease (% of reduction) ([1]; Petroselinyl, 10 μM): 26%; percentage of GFP-silencing relative to siMOCK ([3]; Petroselinyl, 15 μM): 66%
